B1: BMP4: signaling protein promoting ETS1 in initial neural crest stem cells (protein, UniProt P12644 293-408, looked up)
Bone morphogenetic protein 4: SPKHHSQRARKKNKNCRRHSLYVDFSDVGWNDWIVAPPGYQAFYCHGDCPFPLADHLNSTNHAIVQTLVNSVNSSIPKACCVPTELSAISMLYLDEYDKVVLKNYQEMVVEGCGCR

Assays:
Type in all cases: cell-based, human
initial NCSCs = assay: Mechanism analysis of axial specification of initial NCSCs by signaling factors (immunochemical analysis, FACS); conditions: initial NCSCs isolated on Day 5; for ETS1 protein expression: FGF2 effect through BMP4
Excerpt: (§1) The initial NCSCs were isolated on Day 5 of the differentiation, and then, on Days 5 or 10, the expression of the ETS1 protein was confirmed in the FGF2-treated NCSCs by immunochemical analysis, and the direct effects of various signaling factors on the initial NCSCs were confirmed by FACS analysis.

[1] = system: NCSCs at the neural plate border-stage; assay: mRNA expression of cranial and cardiac NCSC markers after second differentiation
Excerpt: The NCSCs (those on Day 5 of the differentiation) at the neural plate border-stage obtained through the first differentiation in Example 3-1 were re-distributed and each treated with bFGF or CHIR99021+ retinoic acid to be differentiated into cranial NCSCs or cardiac NCSCs.

[2] = system: initial NCSCs (expressing p75 NGFR or HNK1); assay: Gene expression analysis of NCSCs after second differentiation with axial specification stimulating factor
Description: The NCSCs at the neural plate border-stage (cells on Day 5 of the differentiation) expressing p75 NGFR or HNK1 isolated by FACS in Example 3-1 were re-seeded at 300,000 cells per well in a 24-well plate coated with Geltrex, Matrigel, or Laminin+Fibronectin. After 24 hours, the PIM medium added on Day 5 for stabilization was gradually changed to a neurobasal medium containing 2% B-27 supplement, 1% N2 supplement, and 1% Glutamax together with fibroblast growth factor 2 (FGF2) (Table 2). As an axial specification stimulating factor, FGF2 was added to the culture medium on days 6 to 10 of differentiation, and the proliferated neural crest stem cells were purified by FACS using an antibody against the neural crest stem cell surface antigen p75 NGFR on days 11 to 14 of differentiation (FIG. 4).
Accordingly, it was confirmed that the role of the non-NCSCs is to activate FGF signaling of the initial NCSCs, inducing to cranial specification.

SOX9 reporter hESCs = assay: Differentiation into cranial NCSCs using SOX9 reporter hESC (FACS)
Excerpt: as §1
When NCSCs were differentiated without FGF2 treatment using SOX9: reporter hESC, a known marker of cranial NCSCs, the differentiation efficiency into cranial NCSCs was approximately 25%, and when treated with bFGF, the percentage of SOX9-expressing cells was 80% or more (FIGS. 8C and 8D).

[3] = NCSCs treated at second differentiation

Row | Molecule | ZIC1 gene expression (initial NCSCs) | ETS1 protein expression (initial NCSCs) | ZIC1 gene expression (initial NCSCs; listed as bFGF) | mRNA expression of PRRX2 (cranial NCSC marker) [1] | mRNA expression of SOX9 (cranial NCSC marker) [1] | mRNA expression of TWIST1 (cranial NCSC marker) [1] | expression of the HOX gene [2, 3] | expression of the TWIST1 gene (marker gene of cranial NCSCs) [2, 3] | expression ratio of ETS1/ZIC1 ([2]; second culture for 5 days, isolated initial NCSC group and unisolated mixed cell group) | ZIC1 gene expression in single cells ([2]; single NCSCs, from Day 4) | percentage of SOX9-expressing cells (SOX9 reporter hESCs; SOX9 reporter hESC, cranial NCSC differentiation) | differentiation efficiency from SOX9 reporter hESCs into cranial neural crest stem cells (SOX9 reporter hESCs; two-step differentiation method)
1 | fibroblast growth factor 2 [FGF2] | inhibit | promotion | inhibitory effect | increased | increased | increased | decreased expression | increased expression | increased | significant decrease | ≥ 80% | about 80%
2 | B1 |  | promotion |  |  |  |  |  |  |  |  |  | 
